For one assay, the system named is CFA-induced pain model. In words: Antiallodynic activity on Complete Freund's Adjuvant (CFA)-induced inflammatory pain model (von Frey). It counts as in vivo, Sprague-Dawley rats. To be noted: Rattus norvegicus, ip. How it is done:
Male, Sprague-Dawley rats (200-220 g, Nara Bio, Korea) were habituated for 1 week before surgery and allowed free access to food and water throughout the experimentation. Room temperature and humidity were maintained at 24±2° C. and 50±10%, respectively.
CFA-induced inflammatory pain was induced by the procedure of Nagakura et al. (2003) and Gregory P. et al. (2010) with minor modifications. CFA (sigma, USA) was injected into the left plantar with a 100 ul volume under gaseous anesthesia with isoflurane and NO2 with a 4:4 flow ratio. Sham controls were injected with 100 ul of saline and preparation of the vehicle controls were identical to the group treated with compound, except for administration of vehicles without compound in the vehicle control group.
Tactile sensitivity (mechanical allodynia) was evaluated using von Frey monofilaments before and after treatment, and the animals were included in the study only if the withdrawal threshold value was less than 4 g. One week after surgery, CFA-infused animals (n=4˜6), sham-operated animals (n=12), and vehicle-operated animals (n=17) were tested for tactile sensitivity with von Frey monofilaments, with 3 trials for each animal. All animals were placed in a stainless steel mesh chamber and habituated for 30 min in the test cage. The tactile sensitivity for the ipsilateral hind paw was measured using the up-and-down method (Dixon, 1980) with seven von Frey monofilaments (0.4, 1, 2, 4, 6, 8, and 15 g) in 3 trials. The tactile sensitivity test was followed by Dixon's method (Dixon, 1980). The 50% paw withdrawal threshold for each paw was calculated using the following formula: [Xth] log=[vFr] log+ky where [vFr] is the force of the last von Frey used, k=0.2249 which is the average interval (in log units) between the von Frey monofilaments, and y is a value that depends upon the pattern of the withdrawal responses (Dixon, 1980).
The antiallodynic effect of the compound of Example was evaluated at the doses of 10, 30 and 60 mg/kg (n=4˜6), and were intraperitoneally administered in a volume of 5 ul/g by bodyweight in a vehicle of 30% (v/v) PEG. […]
The relative values compared to the sham (% control) were calculated and are shown in Table 4, which show an antiallodynic effect of the compound of examples in the CFA-induced pain model in rats.

For assay [1], the system named is acetic acid-induced writhes. The experiment in a line: Writhing test (acetic acid). In kind it is in vivo, ICR mice. Particulars: Mus musculus, po, 0.5 h, read-out: Writh test: ED50 mg/kg. How it is done:
To examine the pain relief effect of the sulfamate derivative compounds, a writhing test was referring to Fischer, L. G. et al. (2008).
ICR mice (male, 24-28 g; Orient Bio, Korea) were habituated before test in test room for 1 hour. Animals were fasted for 2 hr before administration of compounds. […] All compounds were dissolved in a vehicle of 30% (v/v) PEG 400 or 20% (v/v) Tween 80. The control group was treated with the vehicle without compounds.
[…] Animals were habituated in the cage for 5 min. 5 min after habituation, the number of writhes (abdominal constriction) was counted for 15 minutes referring to Korzeniewska-Rybicka, I. et al. (1998) and compared with that of the control.
(In writhing tests, fewer writhes than in controls are read as antinociception.)

Assay [2] deals with Post operation-induced pain model. The experiment in a line: Antiallodynic activity on post operative pain-induced pain model (von Frey). To be noted: Rattus norvegicus, ip, 0.5 h, read-out: Post Operation: ED50 mg/kg. It counts as in vivo, Sprague-Dawley rats. How it is done: Male Sprague-Dawley rats (Orient Bio, Korea), 300-320 g, total of 201 rats were used (details in Table 7). Rats were habituated at least 3 days before surgery and free access to food and water (room temperature and humidity were maintained at […] and 50±10%, respectively). The process of performing the post-operation model's surgery was adapted from Brennan et al (1996). At first, rats with allodynia (threshold valueless than 8 g) were excluded in Pre-von Frey Test. During the post-operation surgery, rats were anesthetized under gaseous anesthesia with 2% isoflurane. Rats were laid face down on a plate fixed at 37° C. to prevent against hypothermia. The ipsilateral plantar aspect (left side) of the hind paw was prepared in a sterile manner with a 10% povidone-iodine solution. A longitudinal incision (1 cm) (FIG. 2-A) was made with a blade (number 11) through the skin and fascia of the ipsilateral plantar aspect of the foot, starting from 0.5 cm below the proximal edge of the heel and extending toward the toes. Rats' plantar muscles were elevated and incised longitudinally (FIG. 2-B). After hemostasis with gentle pressure, the skin was opposed with 2 mattress sutures (4-0 Dafilon) (FIG. 2-C). The wound site was covered with a 10% povidone-iodine solution gauze and injected with antibiotics (gentamicin, 8 mg/kg, ip). The sutures were removed under halothane anesthesia approximately 30 hours later, at the end of post-operative day 1.
After 2-3 days of recovery, rats with a good response (threshold less than 4 g) in Pre-von Frey Test were selected. According to this response, we made three groups with each group having equal average responses: Group 1, post-operation and drug treated; Group 2, post-operation and vehicle treated; Group 3, no post-operation and vehicle treated. In this study, Group 3 was the sham control (positive) group. The group 2 was used to check for possible failures to generate post-operative pain.
For efficacy measure, the threshold value of group C was assigned 100% efficacy, and the percentage of the threshold values of group A compared to group C (for each different dose level) were calculated as the efficacies. Base on these efficacy values, ED50 was calculated using log fitting. If there was no clear ED50, then we marked the percent efficacy at the highest tested dose or larger than highest tested dose.
For pain threshold test, all animals were placed in a stainless steel meshed chamber and habituated for 30 min in the test box. The tactile sensitivity of the ipsilateral hind paw was measured using the up-and-down method (Dixon, 1980) with seven von Frey monofilaments (0.4, 1, 2, 4, 6, 8, and 15 g) using 3 trials. The 50% paw withdrawal threshold for each paw was calculated using the following formula: [Xth] log=[vFr] log+ky, where [vFr] is the force of the last von Frey filament used, k=0.2249 which is the average interval (in log units) between the von Frey monofilaments, y which is a value that depends upon the pattern of withdrawal responses, and Xth which is the threshold value (Dixon, 1980).
Drugs were dissolved 30% PEG400 for example 60, 0.9% saline for Pregabalin, 20% Tween80 for Tylenol, 0.9% saline for Topiramate. These vehicles were selected depending on the compound's solubility. Intraperitoneal injection (5 μl/g) was done for all drugs.
The relative values compared to the sham (% control) were calculated and shown in Table 8, which show an antiallodynic effect of the compound of examples on Post operation-induced pain model in rats.

Assay [3] relates to Vincristine-induced pain model. In words: Antiallodynic activity in the vincristine-induced pain model (von Frey). To be noted: rat, intraperitoneal. In kind it is in vivo, Sprague-Dawley rats. As for the experimental part: Male, Sprague-Dawley rats (300-320 g, Nara Bio, Korea) were habituated for 1 week before surgery and allowed free access to food and water throughout the experimentation. Room temperature and humidity were maintained at 24±2° C. and 50±10%, respectively.
The vincristine-induced pain model was established by the procedure of Natsuko et al. (2001) with minor modifications. Vincristine was intravenously infused continuously for 14 days using a mini-osmotic pump as follows: Vincristine sulfate solution (Hospira, Australia) was diluted with 0.9% saline to a final dose of 30 ug/kg. The pumps (Alzet Model 2002, USA) were filled with the vincristine solution and primed by incubation at 37° C. for 4 h before the infusion. Briefly, animals were put under gaseous anesthesia with isoflurane and NO with a 4:4 flow ratio. A catheter made from PE-60 tubing was inserted into an external jugular vein in the rat. Sham controls were prepared in the same manner, with the external jugular vein exposed, but not cut down. Preparation of the vehicle controls were identical to the group treated with compound, except for administration of vehicles without compound in the vehicle control group.
Tactile sensitivity (mechanical allodynia) was evaluated using von Frey monofilaments before and after treatment, and the animals were included in the study only if the withdrawal threshold value was less than 4 g. One week after surgery, vincristine-infused animals (n=6), sham-operated animals (n=12) and vehicle-operated (n=18) animals were tested for tactile sensitivity with von Frey monofilaments with 3 trials in each animal. All animals were placed in a stainless steel mesh chamber and habituated for 30 min in the test cage. The tactile sensitivity for the ipsilateral hind paw was measured using the up-and-down method (Dixon, 1980) with seven von Frey monofilaments (0.4, 1, 2, 4, 6, 8, and 15 g) in 3 trials. The tactile sensitivity test was followed by Dixon's method. The 50% paw withdrawal threshold for each paw was calculated using the following formula: [Xth] log=[vFr] log+ky where [vFr] is the force of the last von Frey used, k=0.2249 which is the average interval (in log units) between the von Frey monofilaments, and y is a value that depends upon the pattern of withdrawal responses (Dixon, 1980).
[…] The test was performed at the peak time of efficacy (0.5 hr) after compound administration.
The relative values compared to the sham (% control) were calculated and are shown in Table 11, which show an antiallodynic effect of the compound of examples in the vincristine-induced pain model in rats.

The next assay deals with SNL model. The experiment in a line: Antiallodynic activity in the Chung model (SNL, Spinal Nerve Ligation; von Frey). To be noted: Rattus norvegicus, po, 0.5 h, read-out: SNL model: effect (%) compared to control, rat, oral, 3.5 mg/kg administered, 0.5 h. In kind it is in vivo, Sprague-Dawley rats. How it is done: Male Sprague-Dawley rats (200-220 g, Orient Bio, Korea) were habituated for 1 week before the experiment and allowed free access to food and water throughout the experimentation. Room temperature and humidity were maintained at 24±2° C. and 50±10%, respectively. The neuropathic surgery (SNL, Spinal Nerve Ligation) model was done as described in Kim and Chung (1992). Briefly, an animal was put under gaseous anesthesia with isoflurane and NO2 with a 4:4 flow ratio. The left lumbar spinal nerves L5 and L6 were isolated and tightly ligated with 4-0 silk thread. The wound was treated with a gentamicin antibiotic solution (4 mg/kg, 4 ul/g by bodyweight), and the wound muscle was closed with Catgut® chrome 4/0 thread and the skin was closed with Dafilon 4/0 thread. Sham controls were prepared in the same manner with the spinal nerves were exposed, but no ligated L5 and L6 nerves. Preparation of the vehicle controls were identical to the group treated with compound, except for administration of vehicles without compound in the vehicle control group.
Tactile sensitivity (mechanical allodynia) was evaluated using von Frey monofilaments before and after treatment and animals the animals were included in the study only if the withdrawal threshold value was less than 4 g. One week after surgery, SNL-operated animals (n=4˜6), sham-operated animals (n=4˜10) and vehicle-operated animals (n=4˜13) were tested for tactile sensitivity with von Frey monofilaments with 3 trials in each animal. All animals were placed in a stainless steel mesh chamber and habituated for 30 min in the test cage. The tactile sensitivity for ipsilateral hind paw was measured using the up-and-down method (Dixon, 1980) with seven von Frey monofilaments (0.4, 1, 2, 4, 6, 8, and 15 g) in 3 trials. The tactile sensitivity test was followed by Dixon's method (Dixon, 1980). The 50% paw withdrawal threshold for each paw was calculated using the following formula: [Xth] log=[vFr] log+ky where [vFr] is the force of the last von Frey used, k=0.2249 which is the average interval (in log units) between the von Frey monofilaments, and y is a value that depends upon the pattern of withdrawal responses (Dixon, 1980).
All animals were fasted for 18 h before the administration of the compounds. The antiallodynic effect of the compounds were evaluated at the various doses (n=5˜6), orally administered in a volume of 5 ul/g by bodyweight in a vehicle of 30% (v/v) PEG 400 (Example 7) or 20% (v/v) Tween 80 (Examples 5 and 6) or saline. […]
The relative values compared to the sham group (% control) were calculated and are shown in Table 5, which show an antiallodynic effect of the test compounds in the SNL model in rats.

This is an account of results in US10081615B2, “Sulfamate derivative compounds for use in treating or alleviating pain” (Bio-Pharm Solutions Co., Ltd., priority 2013, dated 2018).

With `CC1(C)Oc2ccccc2[C@@H](COS([NH-])(=O)=O)O1.[Na+]` [Example 59, Sodium (S)-(((2,2-dimethyl-4H-benzo[d][1,3]dioxin-4-yl)methoxy)sulfonyl)amide Trihydrate], the ED50 in the assay with CFA-induced pain model (0.5 h, read-out: CFA model: ED50 mg/kg) turned out to be 20.2 mg/kg; in assay [1], 81.4 mg/kg; in assay [2], 10.9 mg/kg; in assay [3] (ip, 0.5 h) it was 2.6 mg/kg.

Take `CC1(C)Oc2ccccc2[C@@H](COS([NH-])(=O)=O)O1.[K+]` [Example 71, Potassium (S)-(((2,2-dimethyl-4H-benzo[d][1,3]dioxin-4-yl)methoxy)sulfonyl)amide]: the response vs control in vivo at 25 mg/kg in the assay with CFA-induced pain model (read-out: CFA model: effect (%) compared to control) was found to be 24.7%. Further, in the assay with SNL model, the response vs control in vivo at 3.5 mg/kg is 15.9%. Also, the “Vincristine model: effect (%) compared to control” value in assay [3] (2.4 mg/kg administered, time not given) is recorded as “(96.2%)”.
